Assay type in all cases: biochemical
One assay addresses CDK2/CycA2 (Homo sapiens (Human), UniProt P24941). Put plainly: CDK2/CycA2 kinase Mobility Shift Assay. The following applies: CDK2/CycA2 12 nM, ATP Km 39 μM, 60 min, 28° C. How it is done:
(§1) In vitro enzymatic activity of the CDK isoforms CDK2/CycA2, CDK4/CycD3 and CDK6/cycD3 were measured using Mobility Shift Assay that monitors phosphorylation ratio of FAM labelled peptide (Peptide 18 for CDK2/CycA2, Peptide 8 for CDK4/CycD3). CDK2/CycA2 and CDK6/CycD3 were assayed under buffer conditions in the presence of 50 mM HEPES (pH 7.5), 10 mM MgCl2, 0.0015% Brij-35 and 2 mM dithiothreitol; CDK4/CycD3 with buffer condition of 20 mM HEPES (pH 7.5), 10 mM MgCl2, 0.01% Triton X-100 and 2 mM dithiothreitol. Prepare compounds to 50× of the final desired highest inhibitor concentration by 100% DMSO and serial dilution in 3-fold for total of 10 concentrations. For each isoform, dosage of enzyme and substrate are CDK2/CycA2 12 nM, ATP Km 39 μM; CDK4/CycD3 10 nM, ATP Km […]; CDK6/cycD3 15 nM, ATP Km 800 μM. After assay for 60 min, 180 min, 60 min respectively at 28° C., reactions were terminated with stop solution (50 mM EDTA, 0.015% Brij-35, 0.2% Coating Reagent #3 and 100 mM HEPES (pH 7.5)). Collect conversion on Caliper EZ Reader. IC50 values were calculated by fitting the dose-response curves with Xlfit excel add-in version 4.3.1.

A further assay has as its target HDAC-6 (Homo sapiens (Human), UniProt Q9UBN7). Put plainly: HDAC-6 fluorogenic deacetylase assay (Ac-peptide-AMC). The following applies: read-out: HDAC6 (IC5). On the procedure:
(§2) The inhibitory effect of compounds on HDAC-1 and HDAC-6 function was determined in vitro using an optimized homogenous assay performed in 384-well plate format. In this assay, the recombinant, full-length HDAC-1, HDAC-2 or HDAC-6 protein (BPS Biosciences) was incubated with Ac-peptide-AMC with concentrations in the Km plot. Reactions were performed in Tris-based assay buffer and were followed for fluorogenic release of 7-amino-4-methylcoumarin from substrate upon deacetylase and trypsin enzymatic activity. Fluorescence measurements were obtained using a multilabel plate reader (Synergy MX with excitation at 355 nm and emission at 460 nm). Data were analyzed on a plate-by-plate basis for the linear range of fluorescence over time. Fit the data in GraphPad Prism V5.0 software to obtain IC50 values using equation (Y=Bottom+(Top-Bottom)/(1+10^((Log IC50−X)*Hill Slope), Y is % inhibition and X is compound concentration).

In the next assay the target is CDK6/cycD3 (Homo sapiens (Human), UniProt Q00534). Briefly: CDK6/cycD3 kinase Mobility Shift Assay. The following applies: CDK6/cycD3 15 nM, ATP Km 800 μM, 60 min, 28° C. On the procedure:
as §1

The next assay has as its target CDK4/CycD3 (Homo sapiens (Human), UniProt P11802). Briefly: CDK4/CycD3 kinase Mobility Shift Assay. The following applies: CDK4/CycD3 10 nM, ATP Km 221 μM, 180 min, 28° C. How it is done: as §1
The next assay addresses HDAC-1 (Homo sapiens (Human), UniProt Q13547). Put plainly: HDAC-1 fluorogenic deacetylase assay (Ac-peptide-AMC). The following applies: recombinant, full-length protein, Ac-peptide-AMC substrate; read-out: HDAC1 (IC50). On the procedure:
as §2

Setting [1] is: recombinant, full-length protein, Ac-peptide-AMC substrate.

Like-named read-outs stand apart in the source and are kept apart here. Some results are limits rather than exact numbers.

Chain of CDK6/cycD3 (Q00534 whole entry, species assumed): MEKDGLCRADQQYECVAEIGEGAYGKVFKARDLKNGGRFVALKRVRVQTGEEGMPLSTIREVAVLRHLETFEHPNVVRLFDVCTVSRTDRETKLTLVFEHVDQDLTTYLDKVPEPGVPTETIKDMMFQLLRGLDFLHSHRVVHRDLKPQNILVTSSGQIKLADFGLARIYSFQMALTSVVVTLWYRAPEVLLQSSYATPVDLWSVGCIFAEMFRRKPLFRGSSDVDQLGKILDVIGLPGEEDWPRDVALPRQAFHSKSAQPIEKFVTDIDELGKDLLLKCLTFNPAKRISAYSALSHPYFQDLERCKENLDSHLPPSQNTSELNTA
Chain of CDK6/cycD3 (P30281 whole entry partner, species assumed): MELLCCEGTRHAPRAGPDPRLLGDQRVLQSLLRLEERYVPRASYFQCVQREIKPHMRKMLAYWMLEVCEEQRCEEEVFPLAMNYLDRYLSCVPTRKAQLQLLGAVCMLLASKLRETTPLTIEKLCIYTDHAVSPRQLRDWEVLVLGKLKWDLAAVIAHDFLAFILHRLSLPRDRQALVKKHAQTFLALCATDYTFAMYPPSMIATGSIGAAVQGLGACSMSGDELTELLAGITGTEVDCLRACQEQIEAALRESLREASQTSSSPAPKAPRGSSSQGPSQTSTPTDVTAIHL
Chain of HDAC-6 (Q9UBN7 whole entry): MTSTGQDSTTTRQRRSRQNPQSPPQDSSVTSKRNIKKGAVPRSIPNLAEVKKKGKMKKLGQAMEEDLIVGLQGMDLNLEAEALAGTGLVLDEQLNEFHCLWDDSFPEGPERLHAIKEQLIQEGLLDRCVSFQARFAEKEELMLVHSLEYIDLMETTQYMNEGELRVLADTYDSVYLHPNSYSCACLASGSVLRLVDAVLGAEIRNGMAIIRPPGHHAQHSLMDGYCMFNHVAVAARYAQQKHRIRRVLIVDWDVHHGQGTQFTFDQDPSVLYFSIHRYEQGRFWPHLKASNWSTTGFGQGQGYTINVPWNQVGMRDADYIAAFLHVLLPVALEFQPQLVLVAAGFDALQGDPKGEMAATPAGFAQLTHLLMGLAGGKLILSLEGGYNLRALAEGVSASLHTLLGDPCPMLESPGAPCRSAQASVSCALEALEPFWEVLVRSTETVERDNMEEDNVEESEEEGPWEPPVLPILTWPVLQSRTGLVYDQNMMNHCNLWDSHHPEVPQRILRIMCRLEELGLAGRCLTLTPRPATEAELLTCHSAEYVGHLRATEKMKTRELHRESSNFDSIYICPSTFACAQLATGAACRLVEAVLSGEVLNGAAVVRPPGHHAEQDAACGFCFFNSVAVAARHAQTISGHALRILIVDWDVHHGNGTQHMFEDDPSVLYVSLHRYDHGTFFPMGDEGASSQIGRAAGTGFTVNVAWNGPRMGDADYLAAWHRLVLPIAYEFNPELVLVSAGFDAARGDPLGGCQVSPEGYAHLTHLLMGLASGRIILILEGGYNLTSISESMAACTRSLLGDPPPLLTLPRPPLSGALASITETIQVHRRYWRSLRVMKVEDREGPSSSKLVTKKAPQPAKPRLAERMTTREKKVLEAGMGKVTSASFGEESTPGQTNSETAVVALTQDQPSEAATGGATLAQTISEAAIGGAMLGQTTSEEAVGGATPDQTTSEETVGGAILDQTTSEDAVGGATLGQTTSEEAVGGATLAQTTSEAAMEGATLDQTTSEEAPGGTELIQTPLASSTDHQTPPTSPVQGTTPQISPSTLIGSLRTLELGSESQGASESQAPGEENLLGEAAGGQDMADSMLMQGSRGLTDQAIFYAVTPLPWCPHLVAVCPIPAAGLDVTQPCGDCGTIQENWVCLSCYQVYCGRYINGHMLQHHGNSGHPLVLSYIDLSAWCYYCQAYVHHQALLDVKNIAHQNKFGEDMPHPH
Chain of HDAC-1 (Q13547 whole entry): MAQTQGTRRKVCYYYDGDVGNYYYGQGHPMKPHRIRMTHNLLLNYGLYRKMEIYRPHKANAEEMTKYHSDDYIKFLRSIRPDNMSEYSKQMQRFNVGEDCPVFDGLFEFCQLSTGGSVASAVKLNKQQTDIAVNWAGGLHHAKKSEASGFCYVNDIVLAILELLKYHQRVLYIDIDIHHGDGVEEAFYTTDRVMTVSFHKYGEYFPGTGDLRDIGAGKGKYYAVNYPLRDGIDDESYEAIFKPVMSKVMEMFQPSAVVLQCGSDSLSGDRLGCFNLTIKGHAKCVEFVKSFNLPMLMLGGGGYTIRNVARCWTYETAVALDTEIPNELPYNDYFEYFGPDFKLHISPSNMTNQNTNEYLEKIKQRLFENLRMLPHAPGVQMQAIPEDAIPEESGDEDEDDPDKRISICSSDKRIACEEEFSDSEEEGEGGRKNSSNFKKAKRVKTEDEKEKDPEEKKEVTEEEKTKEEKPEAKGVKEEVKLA
Chain of CDK4/CycD3 (P11802 whole entry, species assumed): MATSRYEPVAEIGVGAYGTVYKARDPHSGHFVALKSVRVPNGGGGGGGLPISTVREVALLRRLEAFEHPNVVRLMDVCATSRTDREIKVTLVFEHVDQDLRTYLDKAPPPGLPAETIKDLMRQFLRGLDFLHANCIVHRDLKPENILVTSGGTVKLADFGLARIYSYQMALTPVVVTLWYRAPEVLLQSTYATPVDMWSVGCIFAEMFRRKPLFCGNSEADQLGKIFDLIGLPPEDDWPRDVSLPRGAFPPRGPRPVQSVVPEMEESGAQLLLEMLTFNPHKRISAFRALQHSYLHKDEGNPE
Chain of CDK4/CycD3 (P30281 whole entry partner, species assumed): as the sequence (P30281 whole entry partner, species assumed) above

For the molecule `Cc1nc2c(F)cc(-c3nc(Nc4ccc(C(=O)NO)cn4)ncc3F)cc2n1C(C)C` [Compound 4, 6-((5-fluoro-4-(4-fluoro-1-isopropyl-2-methyl-1H-benzo[d]imidazol-6-yl)pyrimidin-2-yl)amino)-N-hydroxynicotinamide], the IC50 at CDK2/CycA2 was 100 to 500 nM; on HDAC-6, under 10 nM; on CDK6/cycD3, 100 to 500 nM; on CDK4/CycD3, under 10 nM; at HDAC-1 it was 100 to 500 nM.

As to `Cc1nc2c(F)cc(-c3nc(Nc4ccc(N5CCC(C(=O)NO)CC5)cn4)ncc3F)cc2n1C(C)C` [Compound 15, 1-(6-((5-fluoro-4-(4-fluoro-1-isopropyl-2-methyl-1H-benzo[d]imidazol-6-yl)pyrimidin-2-yl)amino)pyridin-3-yl)-N-hydroxypiperidine-4-carboxamide], the IC50 was 10 to 100 nM on CDK2/CycA2; 100 to 500 nM at HDAC-6 (setting [1]); 10 to 100 nM on CDK6/cycD3; under 10 nM on CDK4/CycD3; at least 1000 nM at HDAC-1.

`Cc1nc2c(F)cc(-c3nc(Nc4ccc(C(=O)NO)nc4)ncc3F)cc2n1C(C)C` [Compound 11, 5-((5-fluoro-4-(4-fluoro-1-isopropyl-2-methyl-1H-benzo[d]imidazol-6-yl)pyrimidin-2-yl)amino)-N-hydroxypicolinamide]: the IC50 on CDK2/CycA2 was under 10 nM; at HDAC-6 (setting [1]), at least 1000 nM; at CDK6/cycD3 it was 10 to 100 nM; at CDK4/CycD3, under 10 nM; at HDAC-1, at least 1000 nM.

On to `Cc1nc2c(F)cc(-c3nc(Nc4ccc(N(C)Cc5ccc(C(=O)NO)cc5)cn4)ncc3F)cc2n1C(C)C` [Compound 6, 4-(((6-((5-fluoro-4-(4-fluoro-1-isopropyl-2-methyl-1H-benzo[d]imidazol-6-yl)pyrimidin-2-yl)amino)pyridin-3-yl)(methyl)amino)methyl)-N-hydroxybenzamide], for which the IC50 at CDK2/CycA2 was under 10 nM; on HDAC-6 (setting [1]) it was 10 to 100 nM; at CDK6/cycD3, 10 to 100 nM; on CDK4/CycD3, under 10 nM; at HDAC-1, 100 to 500 nM.

With `Cc1nc2c(F)cc(-c3nc(Nc4ccc(N5CCN(CCC(=O)NO)CC5)cn4)ncc3F)cc2n1C(C)C` [Compound 14, 3-(4-(6-((5-fluoro-4-(4-fluoro-1-isopropyl-2-methyl-1H-benzo[d]imidazol-6-yl)pyrimidin-2-yl)amino)pyridin-3-yl)piperazin-1-yl)-N-hydroxypropanamide], the IC50 is 10 to 100 nM on CDK2/CycA2; 500 to 1000 nM at HDAC-6 (setting [1]); 10 to 100 nM at CDK6/cycD3; under 10 nM at CDK4/CycD3; at least 1000 nM on HDAC-1.

For `Cc1nc2c(F)cc(-c3nc(Nc4ccc(N5CCN(CCCCC(=O)NO)CC5)cn4)ncc3F)cc2n1C(C)C` [Compound 13, 5-(4-(6-((5-fluoro-4-(4-fluoro-1-isopropyl-2-methyl-1H-benzo[d]imidazol-6-yl)pyrimidin-2-yl)amino)pyridin-3-yl)piperazin-1-yl)-N-hydroxypentanamide], the IC50 on CDK2/CycA2 was 10 to 100 nM; at HDAC-6 (setting [1]), 10 to 100 nM; on CDK6/cycD3 it was under 10 nM; on CDK4/CycD3 it was under 10 nM; on HDAC-1, at least 1000 nM.

Regarding `Cc1nc2c(F)cc(-c3nc(Nc4ccc(-c5ccc(C(=O)NO)cn5)cn4)ncc3F)cc2n1C(C)C` [Compound 16, 6′-((5-fluoro-4-(4-fluoro-1-isopropyl-2-methyl-1H-benzo[d]imidazol-6-yl)pyrimidin-2-yl)amino)-N-hydroxy-[2,3′-bipyridine]-5-carboxamide], the IC50 was under 10 nM at CDK2/CycA2; 100 to 500 nM at HDAC-6 (setting [1]); 10 to 100 nM on CDK6/cycD3; under 10 nM at CDK4/CycD3; at least 1000 nM on HDAC-1.

For `Cc1nc2c(F)cc(-c3nc(Nc4ccc(N5CCN(CCCCCCC(=O)NO)CC5)cn4)ncc3F)cc2n1C(C)C` [Compound 9, 7-(4-(6-((5-fluoro-4-(4-fluoro-1-isopropyl-2-methyl-1H-benzo[d]imidazol-6-yl)pyrimidin-2-yl)amino)pyridin-3-yl)piperazin-1-yl)-N-hydroxyheptanamide], the IC50 at CDK2/CycA2 was 10 to 100 nM; at HDAC-6, under 10 nM; at CDK6/cycD3 it was 10 to 100 nM; on CDK4/CycD3, under 10 nM; on HDAC-1, at least 1000 nM.

`Cc1nc2c(F)cc(-c3nc(Nc4ccc(/C=C/C(=O)NO)cn4)ncc3F)cc2n1C(C)C` [Compound 5, (E)-3-(6-((5-fluoro-4-(4-fluoro-1-isopropyl-2-methyl-1H-benzo[d]imidazol-6-yl)pyrimidin-2-yl)amino)pyridin-3-yl)-N-hydroxyacrylamide]: the IC50 on CDK2/CycA2 is 10 to 100 nM; at HDAC-6 (setting [1]), 10 to 100 nM; on CDK6/cycD3 it was 100 to 500 nM; on CDK4/CycD3, under 10 nM; on HDAC-1, at least 1000 nM.

Take `Cc1nc2c(F)cc(-c3nc(Nc4ccc(N(C)CCN(C)c5ncc(C(=O)NO)cn5)cn4)ncc3F)cc2n1C(C)C` [Compound 2, 2-((2-((6-((5-fluoro-4-(4-fluoro-1-isopropyl-2-methyl-1H-benzo[d]imidazol-6-yl)pyrimidin-2-yl)amino)pyridin-3-yl)(methyl)amino)ethyl)(methyl)amino)-N-hydroxypyrimidine-5-carboxamide]: the IC50 on CDK2/CycA2 was 100 to 500 nM; on HDAC-6 (setting [1]), 10 to 100 nM; at CDK6/cycD3 it was 10 to 100 nM; on CDK4/CycD3, under 10 nM; on HDAC-1, under 10 nM.

For `Cc1nc2c(F)cc(-c3nc(Nc4ccc(N5CCN(Cc6ccc(C(=O)NO)cc6)CC5)cn4)ncc3F)cc2n1C(C)C` [Compound 8, 4-((4-(6-((5-fluoro-4-(4-fluoro-1-isopropyl-2-methyl-1H-benzo[d]imidazol-6-yl)pyrimidin-2-yl)amino)pyridin-3-yl)piperazin-1-yl)methyl)-N-hydroxybenzamide], the IC50 is 10 to 100 nM at CDK2/CycA2; under 10 nM at HDAC-6; 10 to 100 nM on CDK6/cycD3; under 10 nM at CDK4/CycD3; 10 to 100 nM on HDAC-1.

In the case of `Cc1nc2c(F)cc(-c3nc(Nc4ccc(CN5CCN(CCCCCCC(=O)NO)CC5)cn4)ncc3F)cc2n1C(C)C` [Compound 1, 7-(4-((6-((5-fluoro-4-(4-fluoro-1-isopropyl-2-methyl-1H-benzo[d]imidazol-6-yl)pyrimidin-2-yl)amino)pyridin-3-yl)methyl)piperazin-1-yl)-N-hydroxyheptanamide], the IC50 was 10 to 100 nM on CDK2/CycA2; 10 to 100 nM at HDAC-6 (setting [1]); 10 to 100 nM at CDK6/cycD3; under 10 nM at CDK4/CycD3; 100 to 500 nM at HDAC-1.

On to `Cc1nc2c(F)cc(-c3nc(Nc4ccc(N5CCN(C(=O)CCCCCCC(=O)NO)CC5)cn4)ncc3F)cc2n1C(C)C` [Compound 10, 8-(4-(6-((5-fluoro-4-(4-fluoro-1-isopropyl-2-methyl-1H-benzo[d]imidazol-6-yl)pyrimidin-2-yl)amino)pyridin-3-yl)piperazin-1-yl)-N-hydroxy-8-oxooctanamide], for which the IC50 at CDK2/CycA2 was 10 to 100 nM; at HDAC-6, under 10 nM; on CDK6/cycD3, under 10 nM; on CDK4/CycD3, under 10 nM; at HDAC-1, 100 to 500 nM.

Turning to `Cc1nc2c(F)cc(-c3nc(Nc4ccc(C#CC(=O)NO)cn4)ncc3F)cc2n1C(C)C` [Compound 17, 3-(6-((5-fluoro-4-(4-fluoro-1-isopropyl-2-methyl-1H-benzo[d]imidazol-6-yl)pyrimidin-2-yl)amino)pyridin-3-yl)-N-hydroxypropiolamide], on CDK4/CycD3, the IC50 is under 10 nM.

The values are drawn from patent US12415797B2, “Heterocyclic compound as CDK-HDAC double-channel inhibitor” (Hangzhou Innogate Pharma Co., Ltd., priority 2018, dated 2025).
